Like-named read-outs stand apart in the source and are kept apart here.
How the values were obtained:
[1] = system: Sprague-Dawley rats; experiment: Potential of OlGly to produce a CPP or CPA (place conditioning, Experiment 1); assay type: in vivo, rat; settings: 5 mg/kg ip
Protocol: Rats (n=12) received two conditioning trials with oleoyl glycine. On each trial they received intraperitoneal (ip) injections of 5 mg/kg oleoyl glycine or VEH (24 hr apart; counterbalanced order) 20 minutes prior to placement in the conditioning box lined with the grid or hole floor (counterbalanced) for 20 minutes.

[2] = system: Sprague-Dawley rats; experiment: Establishment of naloxone precipitated MWD-induced conditioned place aversion (Experiment 2); assay type: in vivo, rat
Protocol: Rats (n=22) received two 3-day conditioning cycles in order to attain a naloxone precipitated MWD-induced place avoidance. On Day 1, the floor opposite to the assigned drug floor was paired with a s.c. saline injection. Ten minutes after a saline injection, the rats were placed into the conditioning box with the assigned saline-paired floor for 20 minutes while their locomotion was tracked with Ethovision. On Day 2, the rats received a high dose of morphine (20 mg/kg) s.c., 24 h after the saline conditioning trial the previous day. After the injection, they were placed in an empty shoebox cage and monitored for signs of respiratory distress and stimulated when necessary until they recovered and were returned to the home cage. On Day 3, 24 h post morphine injections, the rats were injected with either VEH (n=12) or OlGly (n=12) 10 min prior to receiving an s.c. injection of naloxone. Ten min later they were placed into the conditioning box with the assigned naloxone-paired floor for 20 minutes while their locomotion was tracked using Ethovision. Four days later, all rats underwent a second 3-day conditioning cycle. Five days following the last naloxone trial, a 10 min drug-free test trial was performed. The test trial consisted of the same procedures as the pre-test trial, but rats were given a s.c. saline injection 10 min prior to the test. […]

[3] = system: ICR mice; experiment: Morphine CPP in mice; assay type: in vivo, mouse; settings: OlGly 30 mg/kg i.p., morphine 10 mg/kg s.c. for 3 days
Protocol: Male C57BL/6 mice (Charles River, Italy) weighing 18-20 g were used for the mild TBI Weight Drop (WD) model. Mice were housed three per cage under controlled illumination (12 h light/dark cycle; light on 6:00 A.M.) and standard environmental conditions (ambient temperature 20-22° C., humidity 55-60%) for at least 1 week before the beginning of experiments. Animal chow and tap water were available ad libitum. Male ICR mice (6-8 weeks old; Harlan, Indianapolis, Ind.) with a body mass of 27-32 g served as subjects in all in vivo pharmacology experiments. Mice were group-housed (four per cage) on a 12/12 light/dark cycle (lights on at 0600 h) and given food and water ad libitum. All animal protocols were approved by the Virginia Commonwealth University Institutional Animal Care and Use Committee, were in accordance with the National Institutes of Health Guide for the Care and Use of Laboratory Animals (Institute of Laboratory Animal Resources, 2011), and by the Animal Ethics Committee of The Second University of Naples, in compliance with Italian (D.L. 116/92) and European Commission (O.J. of E.C. L358/1 18/12/86) regulations on the protection of laboratory animals. All efforts were made to reduce both animal numbers and suffering during the experiments. […]

[4] = system: ICR mice; experiment: Cannabinoid tetrad behavioral assessment; assay type: in vivo, mouse; settings: i.p.
Protocol: Male C57BL/6 mice (Charles River, Italy) weighing 18-20 g were used for the mild TBI Weight Drop (WD) model. Mice were housed three per cage under controlled illumination (12 h light/dark cycle; light on 6:00 A.M.) and standard environmental conditions (ambient temperature 20-22° C., humidity 55-60%) for at least 1 week before the beginning of experiments. Animal chow and tap water were available ad libitum. Male ICR mice (6-8 weeks old; Harlan, Indianapolis, Ind.) with a body mass of 27-32 g served as subjects in all in vivo pharmacology experiments. Mice were group-housed (four per cage) on a 12/12 light/dark cycle (lights on at 0600 h) and given food and water ad libitum. All animal protocols were approved by the Virginia Commonwealth University Institutional Animal Care and Use Committee, were in accordance with the National Institutes of Health Guide for the Care and Use of Laboratory Animals (Institute of Laboratory Animal Resources, 2011), and by the Animal Ethics Committee of The Second University of Naples, in compliance with Italian (D.L. 116/92) and European Commission (O.J. of E.C. L358/1 18/12/86) regulations on the protection of laboratory animals. All efforts were made to reduce both animal numbers and suffering during the experiments.
[^2H]8AEA, [^2H]52-AG, [^2H]4 PEA, [^2H]4 OEA, [^2H]8 N-arachidonoyldopamine (NADA), [^2H]8AraSer and [^2H]8AraGly were purchased from Cayman Chemicals (MI, USA). OlGly was synthetized in the Mechoulam laboratory and CP55,940 ((−)-cis-3-[2-hydroxy-4-(1,1-dimethylheptyl)phenyl]-trans-4-(3-hydroxypropyl)cyclohexanol) and morphine sulfate were generously provided by NIDA (Rockville, Md.). OlGly and CP55,940 were dissolved in a vehicle solution consisting of ethanol (5% of total volume), alkamuls-620 (Sanofi-Aventis, Bridgewater, N.J.) (5% of total volume), and saline (0.9% NaCl) (90% of total volume). Oleoyl glycine and CP55,940 were given via the intraperitoneal (i.p.) route of administration. (−)-Nicotine hydrogen tartrate [(−)-1-methyl-2-(3-pyridyl)pyrrolidine (+)-bitartrate] and mecamylamine HCl were purchased from Sigma-Aldrich Inc. (St. Louis, Mo., USA). Morphine sulfate [morphine hemi[sulfate pentahydrate]] Nicotine and mecamylamine (2 mg/kg) were dissolved in physiological saline and given via the subcutaneous (s.c.) route of administration in a volume of 10 ml/kg. For the nicotine CPP study, 0.5 mg/kg nicotine dose was used because this dose reliably produces significant CPP in ICR mouse (18). Morphine CPP was performed with 10 mg/kg (s.c.) as recently described (19). For nicotine withdrawal studies, 24 mg/kg/day nicotine or saline was continuously perfused for 14 days using s.c. osmotic minipumps (model 2000; Alzet Corporation, Cupertino, Calif.) that were implanted under isoflurane anesthesia. This prolonged nicotine administration regimen reliably produces significant withdrawal syndrome in the three behavioral paradigms used here.
Mice were acclimated to the test environment for at least 1 h prior to testing for tetrad components: spontaneous activity, catalepsy, antinociception, and hypothermia (7-9). In the locomotor studies, subjects were administered vehicle or drug and 5 min later were placed into clear acrylic boxes (approx. 44.5 cm×22.25 cm×20.0 cm) contained within sound-attenuating cabinets equipped with an LED light source and fans for general air circulation and creation of white noise. The distance traveled (cm) and time spent immobile (s) for each mouse were collected and recorded for 10 min using Fire-i™ digital cameras purchased from Unibrain (San Ramon, Calif., USA) and ANY-maze™ video tracking software purchased from Stoelting Company (Wood Dale, Ill., USA). Mice were assessed for baseline tail withdrawal latencies and body temperature, given an intraperitoneal (i.p.) injection of vehicle or drug (OlGly), and 30 min later assessed in the following order: catalepsy, tail withdrawal test, and body temperature. […]

[5] = system: Sprague-Dawley rats
[6] = system: mice; settings: cited from earlier work
[7] = system: nicotine-dependent mice; settings: cited from earlier work

motoric effects during conditioning (activity measure) compared to VEH [1]: no motoric effects
activity during the conditioning trials ([2]; pretreatment with 5 mg/kg OlGly, naloxone conditioning trials): did not modify activity
melting point: 93 to 94 °C (dec.)
SMILES: CCCCCCCC/C=C\CCCCCCCC(=O)NCC(=O)O [OlGly, oleoyl glycine]
time spent on the oleoyl glycine paired floor (mean) ([1]; 10 min drug-free test trial, VEH paired floor 232.16 sec): 299.00 s
preference or aversion for the drug paired floor ([1]; two conditioning trials, drug-free test trial): did not produce a significant preference or aversion
establishment of the naloxone precipitated MWD-induced CPA ([2]; 5 mg/kg OlGly 10 min prior to naloxone, drug by floor interaction p=0.017): significantly interfered
expression of morphine CPP [3]: did not attenuate
cataleptic responses (bar test) [4]: did not elicit cataleptic responses
antinociception (tail immersion) ([4]; FIG. 5A): did not produce
hypothermia ([4]; FIG. 5B): did not produce
motor behavior: distance traveled ([4]; FIG. 5C): did not produce
motor behavior: speed ([4]; FIG. 5D): did not produce
motor behavior: immobility time ([4]; FIG. 5E): did not produce
establishment of a morphine-induced place preference ([5]; 5 mg/kg OlGly i.p. 10 min prior to morphine 10 mg/kg s.c.): did not modify
establishment of a morphine-induced place preference ([5]; 30 mg/kg OlGly i.p. 10 min prior to morphine 10 mg/kg s.c.): did not modify
nicotine-induced place preference [6]: interfered
place preference or place aversion produced by OlGly itself [6]: neither a place preference nor a place aversion
precipitated withdrawal responses [7]: reduced
withdrawal induced place aversion [7]: reduced
